Assays:
[1] = tested on: B16F10 cells; assay: Cell proliferation assay (alamarBlue), B16F10; format: cell-based; settings: Mus musculus, B16-F10; B16F10 (melanoma, BRAF wild-type), 96 hours
Outline: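 B16F10 cells in DMEM with 10% FCS were exposed to seven concentrations from 1E-5 to 1E-8 M for 96 hours at 37 °C. Viability was read with alamarBlue (ex 530/em 590 nm), and day-0 signal was subtracted. IC50 was derived relative to buffer-treated cells.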

[2] = tested on: MOLP-8 cells; assay: Cell proliferation assay (alamarBlue), MOLP-8; format: cell-based; settings: Homo sapiens; MOLP-8 (multiple myeloma), 120 hours
Outline: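 MOLP-8 cells plated at 4000 cells/well in RPMI1640 with 20% FCS, read after overnight culture, then treated with dilutions from 1E-5 to 1E-8 M for 120 hours at 37° C. Viability by alamarBlue fluorescence (ex 530/em 590 nm); initial reads subtracted, compared with buffer-treated cells, and IC50 calculated for 50% proliferation inhibition.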

[3] = target: T1, BRD4 bromo domain 2 [BRD4(2)] (Homo sapiens, UniProt O60885); assay: BRD4/acetylated peptide H4 binding assay (TR-FRET), BRD4 bromo domain 2; settings: inhibition of BRD4(2)/Ac-H4 peptide interaction
T1 construct: N-terminally His6-tagged BRD4(2) (amino acids 357-445); made in house; host or cells: E. coli
Outline: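 Binding of His6-BRD4(2) (aa 357-445, 100 nM final) to biotinylated tetra-acetylated H4 peptide read by TR-FRET (665/620 nm). Compound preincubated 10 min at 22 °C, then 1 h at 22 °C plus ≥3 h at 4 °C. Eleven concentrations (0.1 nM–20 μM) in duplicate; IC50 by 4-parameter fit.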

Row | SMILES | IC50 [1] | IC50 [2] | IC50 [3]
1 | C[C@@H]1C(=O)N(C)c2ccc(Nc3cccc(S(=O)(=O)N[C@H]4CC[C@H](N5CCN(CC6CC6)CC5)CC4)c3)nc2N1C1CCNCC1 [Example 127, N-{trans-4-[4-(cyclopropylmethyl)piperazin-1-yl]cyclohexyl}-3-{[(3R)-1,3-dimethyl-2-oxo-4-(piperidin-4-yl)-1,2,3,4-tetrahydropyrido[2,3-b]pyrazin-6-yl]amino}-benzenesulphonamide] | > 20000 nM | > 10000 nM | 90 nM
2 | C[C@@H]1C(=O)N(C)c2ccc(Nc3cccc(S(=O)(=O)N(C)C)c3)cc2N1C1CCNCC1 [Example 129, 3-{[(3R)-1,3-dimethyl-2-oxo-4-(piperidin-4-yl)-1,2,3,4-tetrahydroquinoxalin-6-yl]amino}-N,N-dimethylbenzenesulphon-amide] | 2160 nM | 567 nM | 97 nM
3 | C[C@@H]1C(=O)N(C)c2ccc(Nc3cccc(C(=O)N[C@H]4CC[C@H](N5CCN(CC6CC6)CC5)CC4)c3)nc2N1C1CCNCC1 [Example 131, N-{trans-4-[4-(cyclo-propylmethyl)piperazin-1-yl]cyclohexyl}-3-{[(3R)-1,3-dimethyl-2-oxo-4-(piperidin-4-yl)-1,2,3,4-tetrahydropyrido[2,3-b]pyrazin-6-yl]amino}benzamide] | > 20000 nM | > 20000 nM | 188 nM
4 | C[C@@H]1C(=O)N(C)c2ccc(Nc3cccc(C(=O)N(C)C)c3)cc2N1C1CCNCC1 [Example 133, 3-{[(3R)-1,3-dimethyl-2-oxo-4-(piperidin-4-yl)-1,2,3,4-tetrahydroquinoxalin-6-yl]amino}-N,N-dimethylbenzamide] | > 20000 nM | 2010 nM | 990 nM
5 | Cc1nnc(-c2cccc(Nc3ccc4c(n3)N(C3CCOCC3)[C@H](C)C(=O)N4C)c2)o1 [Example 134, (3R)-1,3-Dimethyl-6-{[3-(5-methyl-1,3,4-oxadiazol-2-yl)phenyl]amino}-4-(tetrahydro-2H-pyran-4-yl)-3,4-dihydropyrido[2,3-b]pyrazin-2(1H)-one] | 768 nM | 453 nM | 191 nM
